According to patent US20030003508A1 (priority 1999, published 2003):

Test system: R. pulicis
Type: cell-based, Rickettsia pulicis

SMILES: CC[C@H]1OC(=O)[C@H](C)[C@@H](O[C@H]2C[C@@](C)(OC)[C@@H](O)[C@H](C)O2)[C@H](C)[C@@H](O[C@@H]2O[C@H](C)C[C@H](N(C)C)[C@H]2O)[C@](C)(O)C[C@@H](C)C(=O)[C@H](C)[C@@H](O)[C@]1(C)O [Erythromycin]
- resistance/sensitivity of the isolate to the antibiotic: resistant
